{"source": "paper PMC9415903", "about": "“Confocal Laser Scanning Microscopy and Model Membranes to Study Translocation Mechanisms of Membrane Active Peptides” (Pharmaceutics, 2022)", "key": {"[1]": {"experiment": "Peptide internalization and Alexa Fluor 488 efflux in POPS GUVs, confocal laser scanning microscopy", "assay_type": "in vitro ADME", "details": "room temperature; for Internalization of peptide in GUVs / Pore formation (efflux of AF 488, lytic effect): POPC/POPS/chol 50/30/20 mol% GUVs, 2 µM peptide, 30 min, CLSM; for Kint, peptide internalization rate constant: GUVs POPC/POPS/chol 50/30/20 mol%, 2 µM fluorescently labeled peptide, 180 mM glucose, 20 mM Hepes pH 7.5, CLSM fluorescence inside GUVs, fit F(t)=1−exp(−kint×t), data from three experiments averaged", "experimental": "(§1) Giant unilamellar vesicles (GUVs) were obtained by the electroformation method as previously indicated. For that, 30 µL of different lipid mixtures (detailed in the Results section) were dissolved in chloroform and spread on indium tin oxide (ITO) glass slides (Sigma-Aldrich, Schnelldorf, Germany). After drying, the lipid film was gently hydrated with 200 mM sucrose dissolved in double distilled water, mixed with a fluorescent tracer, Alexa Fluor 488-maleimide (AF 488), at a concentration of 10 µM. The freshly prepared GUVs were then transferred in 180 mM glucose solution containing 20 mM Hepes, with a pH of 7.5. The samples were observed by confocal microscope at room temperature.\n(§2) The experiments were performed using a confocal laser scanning microscope (Nikon Ti-E, Tokyo, Japan), equipped with LU4 Four-Laser Module with AOTF, a Plan Fluor 40x DIC M N2 objective and a DS-F1camera. An Alexa Fluor 488 tracer was excited using a line of 457–514 nm argon ion laser, TAMRA-TAT peptide with a diode laser emitting at 561 nm, and Dy647P1-peptides with a 642 nm diode laser. To observe the accumulation and internalization of peptides and the efflux of fluorescent tracers, the freshly prepared GUVs were transferred to a solution of glucose containing 2 µM fluorescently labeled peptide, to provide a homogeneous distribution of peptides to membranes. For each type of experiment, at least 10–15 GUVs with a diameter of 30–40 μm from two independent experiments were analyzed. Successive images were collected using the Nis-Elements Advanced Research imaging software (Nikon) and then quantification of fluorescence was performed using Fiji ImageJ [14]. The resulting data were then analyzed with Origin Pro 8.5 (OriginLab Corporation, Northampton, MA, USA).\n(§3) For the present study, GUVs mimicking the mammalian plasma membrane were prepared as follows: POPC/cholesterol 80/20 mol%, POPC/POPE/cholesterol 50/30/20 mol% and POPC/POPS/cholesterol 50/30/20 mol%. The peptides fluorescently labeled (see Figure 1 for structure) were added at a concentration of 2 µM and the experiments were performed at room temperature.\n(§4) For kinetic traces, the time course of fluorescence intensity corresponding to peptides and Alexa Fluor 488 inside GUVs was measured. The data from three experiments were averaged and then fitted with a single rising exponential function to determine the values of internalization rates:F(t) = 1 − exp (−kint × t) (1) where t is time and kint is the peptide internalization rate constant.\n(§5) The intensity corresponding to release of tracer Alexa Fluor 488 from GUVs in the presence of peptides was also measured to determine the efflux rates, using a single exponential decay function:F(t) = exp (−keff × t) (2) where t is time and keff is the peptide efflux rate constant."}, "[2]": {"experiment": "TAMRA-TAT internalization and Alexa Fluor 488 efflux in GUVs with increasing cholesterol", "assay_type": "in vitro ADME", "details": "40 mol% chol (POPC/POPE/POPS/chol 30/20/10/40 mol%); CLSM", "experimental": "as §1\nThe experiments were performed using a confocal laser scanning microscope (Nikon Ti-E, Tokyo, Japan), equipped with LU4 Four-Laser Module with AOTF, a Plan Fluor 40x DIC M N2 objective and a DS-F1camera. […] For each type of experiment, at least 10–15 GUVs with a diameter of 30–40 μm from two independent experiments were analyzed. Successive images were collected using the Nis-Elements Advanced Research imaging software (Nikon) and then quantification of fluorescence was performed using Fiji ImageJ [14]. The resulting data were then analyzed with Origin Pro 8.5 (OriginLab Corporation, Northampton, MA, USA). […]"}, "[3]": {"experiment": "Peptide internalization and Alexa Fluor 488 efflux in neutral GUVs, confocal laser scanning microscopy", "assay_type": "in vitro ADME", "details": "POPC/chol 80/20 mol% GUVs; 2 µM peptide; room temperature; up to 30 min; CLSM", "experimental": "as §1, §2, §3"}, "[4]": {"experiment": "Peptide internalization and Alexa Fluor 488 efflux in POPE GUVs, confocal laser scanning microscopy", "assay_type": "in vitro ADME", "details": "room temperature; for Kint, peptide internalization rate constant: GUVs POPC/POPE/chol 50/30/20 mol%, 2 µM fluorescently labeled peptide, 180 mM glucose, 20 mM Hepes pH 7.5, CLSM fluorescence inside GUVs, fit F(t)=1−exp(−kint×t), data from three experiments averaged", "experimental": "as §1, §2, §3, §4, §5"}, "[5]": {"details": "DOPS and/or DOPE containing GUVs; cited from earlier work", "description": "In GUVs that contain 30 mol% PE, all peptides internalize, but only TAT and NKCS are able to form transmembrane pores through which the fluorescent dyes Alexa Fluor 488 can pass."}, "[6]": {"details": "POPC/POPE/chol 50/30/20 mol% GUVs, 2 µM peptide, 30 min, CLSM"}}, "note": "Entries after “also recorded” stand apart in the source; their conditions may differ.", "data": [{"compound": "CN(C)c1ccc2c(c1)Oc1cc(N(C)C)ccc1C21OC(=O)c2cc(C(=O)N[C@@H](Cc3ccc(O)cc3)C(=O)NCC(=O)N[C@@H](CCCNC(=N)N)C(=O)N[C@@H](CCCCN)C(=O)N[C@@H](CCCCN)C(=O)N[C@@H](CCCNC(=N)N)C(=O)N[C@@H](CCCNC(=N)N)C(=O)N[C@@H](CCC(N)=O)C(=O)N[C@@H](CCCNC(=N)N)C(=O)N[C@@H](CCCNC(=N)N)C(=O)N[C@@H](CCCNC(=N)N)C(=O)O)ccc21", "note": "[TAT, reference compound]", "values": [{"measurement": "Internalization of peptide in GUVs", "setting": "[1]", "result": "internalized"}, {"measurement": "Internalization of the peptide", "setting": "[2]", "result": "neither the internalization of the peptide nor the efflux of the fluorescent tracer could be registered"}, {"measurement": "Internalization of peptide in GUVs", "setting": "[3]", "result": "Neither peptide internalization nor AF 488 efflux can be observed"}]}, {"compound": "Dy647P1-CGNKRTR [tLyP-1, Dy647P1-labeled tumor homing peptide, truncated linear form of cyclic peptide LyP-1]", "values": [{"measurement": "Kint, peptide internalization rate constant", "setting": "[1]", "result": "(0.75 ± 0.27) × 10^−3 s^−1"}, {"measurement": "Pore formation (efflux of AF 488, lytic effect)", "setting": "[1]", "result": "just translocate without generating pores"}, {"measurement": "Kint, peptide internalization rate constant", "setting": "[4]", "result": "(0.78 ± 0.03) × 10^−3 s^−1"}, {"measurement": "Efflux of AF 488 (lytic effect, pore formation)", "setting": "[4]; [6]", "result": "without the release of AF 488"}, {"measurement": "Efflux of Alexa Fluor 488 from GUVs", "setting": "[3]", "result": "Neither peptide internalization nor AF 488 efflux can be observed"}]}, {"compound": "Dy647P1-LRRISKDILTGKK [NKCS-[15-27]]", "values": [{"measurement": "Kint, peptide internalization rate constant", "setting": "[1]", "result": "(0.50 ± 0.23) × 10^−3 s^−1"}, {"measurement": "Internalization of peptide in GUVs", "setting": "[1]", "result": "internalized"}, {"measurement": "Pore formation (efflux of AF 488, lytic effect)", "setting": "[1]", "result": "no lytic effect; also recorded: just translocate without generating pores"}, {"measurement": "Kint, peptide internalization rate constant", "setting": "[4]", "result": "(0.20 ± 0.04) × 10^−3 s^−1"}, {"measurement": "Efflux of AF 488 (lytic effect, pore formation)", "setting": "[4]; [6]", "result": "without the release of AF 488"}, {"measurement": "Internalization of peptide in GUVs", "setting": "[4]; [6]", "result": "internalized"}, {"measurement": "Efflux of Alexa Fluor 488 from GUVs", "setting": "[3]", "result": "Neither peptide internalization nor AF 488 efflux can be observed"}, {"measurement": "Internalization of peptide in GUVs", "setting": "[3]", "result": "Neither peptide internalization nor AF 488 efflux can be observed"}]}, {"compound": "nona-arginine [R9]", "values": [{"measurement": "Pore formation", "setting": "[5]", "result": "able to form pores"}]}]}
